According to patent publication US20110092524A1, “Agent for Enhancing Corneal Epithelial Barrier Function” (SANTEN PHARMACEUTICAL CO., LTD., priority 2008, published 2011):
Read-outs that look alike come from different tables or passages of the source.

Assays:
[1] = tested on: SV40-immortalized human corneal epithelial cells (HCE-T); assay: Enhancing effect of PPARγ agonist on barrier function (membrane electrical resistance of corneal epithelial cell layer); assay type: cell-based; conditions: for Membrane electrical resistance: five days after seeding, average of four experiments, base culture 296.0
Method: The PPARγ agonist was evaluated with respect to the enhancing effect on the barrier function of a corneal epithelial cell. For the corneal epithelial cell, an SV40-immortalized human corneal epithelial cell line was used, utilizing a membrane electrical resistance as an index of the barrier function. When the bather function of the corneal epithelial cell is enhanced, the membrane electrical resistance increases, while the bather function is reduced, the membrane electrical resistance decreases.
From RIKEN BioResource Center, SV40-immortalized human corneal epithelial cells (HCE-T) were obtained. […] As the culture medium, a DMEM/Ham's F12 (Nacalai Tesque, Inc.) containing 15% fetal bovine serum (ICN) and 40 μg/mL of gentamicin (Gibco) was used. […] The concentration mentioned above was attained by dissolving each sample in DMSO and diluting 1,000-fold with the culture medium. In addition, a culture medium containing DMSO alone was used as a base culture medium.
(§1) Five days after the seeding, an electrical resistance of an epithelial cell layer was measured using a membrane electrical resistance measurement system (World Precision Instruments). A well containing the base medium alone with no corneal epithelial cell seeded was measured as a blank, and the value was subtracted from the electrical resistance of the epithelial cell layer. The resultant value was multiplied by an area of the cell culture (0.33 cm^2), to thereby obtain an electrical resistance (Ω·cm^2) per unit area.

[2] = tested on: SV40-immortalized human corneal epithelial cells (HCE-T); assay: Influence of PPARγ antagonist on barrier function enhancing effect of PPARγ agonist (membrane electrical resistance); assay type: cell-based; conditions: for Membrane electrical resistance: five days after seeding, average of four experiments, base culture 434.1
Method: An influence of the PPARγ antagonist was evaluated with respect to the barrier function enhancing effect of the PPARγ agonist, and it was examined whether or not the enhancing effect on the barrier function is based on the activity of the PPARγ agonist.
From RIKEN BioResource Center, SV40-immortalized human corneal epithelial cells (HCE-T) were obtained. On a culture insert of 24-well Transwell Clear (Corning Incorporated) were seeded 6.4×10^4 cells of HCE-T, and incubated at 37° C. in 5% CO2. As the culture medium, a DMEM/Ham's F12 (Nacalai Tesque, Inc.) containing 15% fetal bovine serum (ICN) and 40 μg/mL of gentamicin (Gibco) was used. The culture medium was removed after 9 hours, 2 days, 3 days and 4 days, and replaced with a culture medium containing the PPARγ agonist and the PPARγ antagonist to thereby obtain samples. As the PPARγ agonist, rivoglitazone [0.1 μM] was used, and as the PPARγ antagonist, 2-chloro-5-nitrobenzanilide (GW-9662) [0.03 μM, 0.1 μM] was used. The concentrations mentioned above were attained by dissolving each sample in DMSO and diluting 1,000-fold with the culture medium. In addition, a culture containing DMSO alone was used as a base culture medium.
as §1, with “obtaining” for “obtain”

## COc1ccc(OC(=O)N(CC(=O)O)Cc2ccc(OCCc3nc(-c4ccccc4)oc3C)cc2)cc1 [BMS-298585, N-[(4-methoxyphenoxy)carbonyl]-N-[[4-[2-(5-methyl-2-phenyl-4-oxazolyl)ethoxy]phenyl]methyl]glycine]
[1]
  barrier function enhancing effect (in words): excellent barrier function enhancing effect

## C/C(=C/C(=O)c1ccccc1)N[C@@H](Cc1ccc(OCCc2nc(-c3ccccc3)oc2C)cc1)C(=O)O [GW-544, N-[1-methyl-3-oxo-3-phenyl-1(Z)-propenyl]-O-[2-(5-methyl-2-phenyloxazol-4-yl)ethyl]-L-tyrosine]
[1]
  barrier function enhancing effect (in words): excellent barrier function enhancing effect

## O=C(Nc1ccccc1)c1cc([N+](=O)[O-])ccc1Cl [GW-9662, 2-chloro-5-nitrobenzanilide]
[2]; GW-9662 0.03 μM and 0.1 μM with rivoglitazone 0.1 μM
  antagonism of the barrier function enhanced by rivoglitazone (in words): concentration-dependently reduced
[2]; GW-9662 at 0.1 μM with rivoglitazone 0.1 μM
  antagonism of the barrier function enhanced by rivoglitazone (in words): completely antagonized

## CCc1ccc(CCOc2ccc(CC3SC(=O)NC3=O)cc2)nc1 (centres unmarked) [Pioglitazone, 5-[[4-[2-(5-ethyl-2-pyridinyl)ethoxy]phenyl]methyl]-2,4-thiazolidinedione]
[1]; sample 10 μM, HCE-T
  Membrane electrical resistance: 350.3 Ω · cm^2

## COc1ccc2nc(COc3ccc(CC4SC(=O)NC4=O)cc3)n(C)c2c1 (centres unmarked) [Rivoglitazone, 5-[4-(6-methoxy-1-methyl-1H-benzimidazol-2-ylmethoxy)benzyl]thiazolidine-2,4-dione]
[2]; rivoglitazone 0.1 μM alone
  Membrane electrical resistance: 538.8 Ω · cm^2
[2]; rivoglitazone 0.1 μM and GW-9662 0.03 μM
  Membrane electrical resistance: 473.5 Ω · cm^2
[2]; rivoglitazone 0.1 μM and GW-9662 0.1 μM
  Membrane electrical resistance: 429.3 Ω · cm^2
[1]; sample 10 μM, HCE-T, compared with base culture medium
  barrier function enhancing effect (in words): extremely strong barrier function enhancing effect
[1]; sample 10 μM, HCE-T
  Membrane electrical resistance: 615.9 Ω · cm^2

## CN(CCOc1ccc(CC2SC(=O)NC2=O)cc1)c1ccccn1 (centres unmarked) [Rosiglitazone, 5-[p-[2-(methyl-2-pyridylamino)ethoxy]benzyl]-2,4-thiazolidinedione]
[1]; sample 10 μM, HCE-T
  Membrane electrical resistance: 343.2 Ω · cm^2
